According to US7691382B2, “Antiviral polypeptides comprising tandem repeats of APOE 141-149 and variants thereof” (priority 2003, dated 2010):
Peptide text beside a SMILES is read from it.

Legend:
HSV2 clinical isolates = format: cell-based, Human herpes simplex virus type 2
Description: Plaque assays were performed. The methodology was as described in previous Examples for HSV1 plaque assays (including usage of Vero cells) except HSV2 clinical isolates (provided by Prof. Anthony Hart of Liverpool University) were employed instead.

HSV1 = format: cell-based, Human herpes simplex virus type 1; settings: for efficacy for reducing HSV1 infectivity (in words): Examples 2 and 3
In short: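 Plaque reduction in Vero monolayers: ~100 pfu HSV1 pre-mixed 10 min at 37 °C with acetylated/amidated peptides in 0.5% FCS medium, inoculated 60–80 min, then carboxymethylcellulose overlay for 22 or 40 h. Plaques counted after fixing and carbol fuchsin staining; IC50 from % of control versus peptide concentration.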

HIV-1 111B = HIV-1 111B in C8166 T-cells, syncytia and gp120 ELISA; format: cell-based, Human Immunodeficiency Virus; settings: 5 days, read-out: IC50 for inhibiting HIV-1 growth
Description: Peptides (prepared as described previously) were diluted in 50 μl aliquots and mixed with T-cells (C8166) at 40,000 cells per well. Next HIV-1 111B was added at a multiplicity of infection (MOI) of 0.01, and the mixture incubated for 5 days at 37° C. Syncytia formation was assessed visually using an inverting microscope, and viral gp120 levels in supernatants assessed by a gp120 ELISA using GNA for antigen capture. 96-well plates coated with 50 ul GNA (Galanthus nivalis) were washed, then treated with 100 μl RPMI (10% foetal calf serum) and left for one hour. After further washing, 25 μl test sample supernatants were added to wells, along with dilutions of infected control samples. After lysis by 3 hr treatment with 0.5% Empigen (detergent used to lyse virus) to all wells, and washing, 50 μl of human anti-HIV sera was added, and plates incubated overnight. After further washing, 50 μl of a 1000× dilution of anti-human Ig peroxidase conjugate was added, and plates incubated at 37° C. for 90 min. After a final wash, 50 ul peroxidase substrate was added to each well, and plates incubated for 10-30 min. Reaction was stopped with 25 μl 2M H2SO4, and A450 measured.

HIV-1 = settings: NP2 glioma cells, peptide 0.1 to 10 micromolar
Description: The glioma cell line NP2 over-expressing both CD4 and the appropriate co-receptor (CCR5 or CXCR4) were maintained in DMEM supplemented with 10% FCS. 2×10^4 cells were plated per well of a 48-well plate 24 h prior to infection and grown at 37 C. The cells were then washed, and incubated in DMEM/FCS containing peptide concentrations ranging from 0.1 to 10 micromolar, at 37 C for 30 minutes. 200 focus-forming units of HIV-1 stocks were then added to each well, and the cells incubated at 37 C for a further 2 hours. The cells were then washed twice in PBS and fresh medium replaced. After 3 day's growth the cells were fixed in cold methanol:acetone, and stained in situ for expression of HIV-1 p24 using a monoclonal anti-p24 followed by a secondary anti-mouse beta-galactosidase conjugate. Expression was visualised by X-Gal staining and infectious foci enumerated by light-microscopy.

| SMILES | IC50 (HSV2 clinical isolates) [µM] | IC50 (HSV1) [µM] | efficacy for reducing HSV1 infectivity (in words) (HSV1) | IC50 (HIV-1 111B) [µM] | anti-HIV activity (in words) (HIV-1) |
| --- | --- | --- | --- | --- | --- |
| CC(=O)N[C@@H](Cc1c[nH]c2ccccc12)C(=O)N[C@@H](CCCNC(=N)N)C(=O)N[C@@H](CCCCN)C(=O)N[C@@H](Cc1c[nH]c2ccccc12)C(=O)N[C@@H](CCCNC(=N)N)C(=O)N[C@@H](CCCCN)C(=O)N[C@@H](CCCNC(=N)N)C(=O)N[C@@H](Cc1c[nH]c2ccccc12)C(=O)N[C@@H](CCCNC(=N)N)C(=O)N[C@@H](CCCCN)C(=O)N[C@@H](Cc1c[nH]c2ccccc12)C(=O)N[C@@H](CCCNC(=N)N)C(=O)N[C@@H](CCCCN)C(=O)N[C@@H](CCCNC(=N)N)C(N)=O [GIN 32] (Ac-WRKWRKRWRKWRKR-NH2) | 6.25 | 10 | also had efficacy | 7.5 | – |
| CC(=O)N[C@@H](CC(C)C)C(=O)N[C@@H](CCCNC(=N)N)C(=O)N[C@@H](CCCCN)C(=O)N[C@@H](CC(C)C)C(=O)N[C@@H](CCCNC(=N)N)C(=O)N[C@@H](CCCCN)C(=O)N[C@@H](CCCNC(=N)N)C(=O)N[C@@H](CC(C)C)C(=O)N[C@@H](CC(C)C)C(=O)N[C@@H](CC(C)C)C(=O)N[C@@H](CCCNC(=N)N)C(=O)N[C@@H](CCCCN)C(=O)N[C@@H](CC(C)C)C(=O)N[C@@H](CCCNC(=N)N)C(=O)N[C@@H](CCCCN)C(=O)N[C@@H](CCCNC(=N)N)C(=O)N[C@@H](CC(C)C)C(=O)N[C@@H](CC(C)C)C(N)=O [GIN 1p] (Ac-LRKLRKRLLLRKLRKRLL-NH2) | – | – | had anti-HSV-1 properties | – | no detectable anti-HIV activity |
| CC(=O)N[C@@H](CC(C)C)C(=O)N[C@@H](CCCNC(=N)N)C(=O)N[C@@H](CCCCN)C(=O)N[C@@H](CC(C)C)C(=O)N[C@@H](CCCNC(=N)N)C(=O)N[C@@H](CCCCN)C(=O)N[C@@H](CCCNC(=N)N)C(=O)N[C@@H](CC(C)C)C(=O)N[C@@H](CC(C)C)C(=O)N[C@@H](CC(C)C)C(=O)N[C@@H](CCCNC(=N)N)C(=O)N[C@@H](CCCCN)C(=O)N[C@@H](CC(C)C)C(=O)N[C@@H](CCCNC(=N)N)C(=O)N[C@@H](CCCCN)C(=O)N[C@@H](CCCNC(=N)N)C(=O)N[C@@H](Cc1c[nH]c2ccccc12)C(=O)N[C@@H](Cc1c[nH]c2ccccc12)C(N)=O [MU 112] (Ac-LRKLRKRLLLRKLRKRWW-NH2) | 16 | > 20 | – | – | – |
| CC(=O)N[C@@H](CC(C)C)C(=O)N[C@@H](CCCNC(=N)N)C(=O)N[C@@H](CCCCN)C(=O)N[C@@H](CC(C)C)C(=O)N[C@@H](CCCNC(=N)N)C(=O)N[C@@H](CCCCN)C(=O)N[C@@H](CCCNC(=N)N)C(=O)N[C@@H](CC(C)C)C(=O)N[C@@H](CC(C)C)C(=O)N[C@@H](Cc1c[nH]c2ccccc12)C(=O)N[C@@H](CCCNC(=N)N)C(=O)N[C@@H](CCCCN)C(=O)N[C@@H](Cc1c[nH]c2ccccc12)C(=O)N[C@@H](CCCNC(=N)N)C(=O)N[C@@H](CCCCN)C(=O)N[C@@H](CCCNC(=N)N)C(=O)N[C@@H](CC(C)C)C(=O)N[C@@H](CC(C)C)C(N)=O [MU 113] (Ac-LRKLRKRLLWRKWRKRLL-NH2) | 11.8 | 18.5 | – | – | – |

Further lines, with some results ahead:

| IC50 (HSV2 clinical isolates) [µM] | IC50 (HSV1) [µM] | SMILES | efficacy for reducing HSV1 infectivity (in words) (HSV1) | IC50 (HIV-1 111B) [µM] | anti-HIV activity (in words) (HIV-1) |
| --- | --- | --- | --- | --- | --- |
| < 3.3 | 2.5 | CC(=O)N[C@@H](Cc1c[nH]c2ccccc12)C(=O)N[C@@H](CCCNC(=N)N)C(=O)N[C@@H](CCCCN)C(=O)N[C@@H](Cc1c[nH]c2ccccc12)C(=O)N[C@@H](CCCNC(=N)N)C(=O)N[C@@H](CCCCN)C(=O)N[C@@H](CCCNC(=N)N)C(=O)N[C@@H](Cc1c[nH]c2ccccc12)C(=O)N[C@@H](Cc1c[nH]c2ccccc12)C(=O)N[C@@H](CCCNC(=N)N)C(=O)N[C@@H](Cc1c[nH]c2ccccc12)C(=O)N[C@@H](CCCNC(=N)N)C(=O)N[C@@H](CCCCN)C(=O)N[C@@H](Cc1c[nH]c2ccccc12)C(=O)N[C@@H](CCCNC(=N)N)C(=O)N[C@@H](CCCCN)C(=O)N[C@@H](CCCNC(=N)N)C(=O)N[C@@H](Cc1c[nH]c2ccccc12)C(=O)N[C@@H](Cc1c[nH]c2ccccc12)C(=O)N[C@@H](CCCNC(=N)N)C(N)=O [MU 83] (Ac-WRKWRKRWWRWRKWRKRWWR-NH2) | – | – | – |
| 9 | 16 | CC(=O)N[C@@H](Cc1c[nH]c2ccccc12)C(=O)N[C@@H](CCCNC(=N)N)C(=O)N[C@@H](CCCCN)C(=O)N[C@@H](Cc1c[nH]c2ccccc12)C(=O)N[C@@H](CCCNC(=N)N)C(=O)N[C@@H](CCCCN)C(=O)N[C@@H](CCCNC(=N)N)C(=O)N[C@@H](CC(C)C)C(=O)N[C@@H](CC(C)C)C(=O)N[C@@H](CC(C)C)C(=O)N[C@@H](CCCNC(=N)N)C(=O)N[C@@H](CCCCN)C(=O)N[C@@H](CC(C)C)C(=O)N[C@@H](CCCNC(=N)N)C(=O)N[C@@H](CCCCN)C(=O)N[C@@H](CCCNC(=N)N)C(=O)N[C@@H](CC(C)C)C(=O)N[C@@H](CC(C)C)C(N)=O [MU 114] (Ac-WRKWRKRLLLRKLRKRLL-NH2) | – | – | – |
| 6.5 | 12.5 | CC(=O)N[C@@H](CC(C)C)C(=O)N[C@@H](CCCNC(=N)N)C(=O)N[C@@H](CCCCN)C(=O)N[C@@H](CC(C)C)C(=O)N[C@@H](CCCNC(=N)N)C(=O)N[C@@H](CCCCN)C(=O)N[C@@H](CCCNC(=N)N)C(=O)N[C@@H](CC(C)C)C(=O)N[C@@H](CC(C)C)C(=O)N[C@@H](Cc1c[nH]c2ccccc12)C(=O)N[C@@H](CCCNC(=N)N)C(=O)N[C@@H](CCCCN)C(=O)N[C@@H](Cc1c[nH]c2ccccc12)C(=O)N[C@@H](CCCNC(=N)N)C(=O)N[C@@H](CCCCN)C(=O)N[C@@H](CCCNC(=N)N)C(=O)N[C@@H](Cc1c[nH]c2ccccc12)C(=O)N[C@@H](Cc1c[nH]c2ccccc12)C(N)=O [MU 111] (Ac-LRKLRKRLLWRKWRKRWW-NH2) | – | – | – |
